Laboratory results: ChEMBL document CHEMBL4004868, “Synthesis and in vitro biological evaluation of novel quinazoline derivatives” (Bioorg Med Chem Lett, 2017)
Calls of active or inactive are those of the source. The rule behind the calls is not given here.

Experiments:
[1] = system: A-431; assay: Cytotoxicity against human A431 cells assessed as decrease in cell viability after 72 hrs by MTT assay; format: functional
[2] = system: A549; assay: Cytotoxicity against human A549 cells assessed as decrease in cell viability after 72 hrs by MTT assay; format: functional
[3] = system: NCI-H1975; assay: Cytotoxicity against human NCI-H1975 cells assessed as decrease in cell viability after 72 hrs by MTT assay; format: functional
[4] = system: SW480; assay: Cytotoxicity against human SW480 cells assessed as decrease in cell viability after 72 hrs by MTT assay; format: functional
[5] = molecular target: T1, Epidermal growth factor receptor (Homo sapiens, UniProt P00533); assay: Inhibition of EGFR phosphorylation at Tyr residue in human NCI-H1975 cells at 50 uM preincubated for 2 hrs followed by EGF induction measured after 10 mins by Western blot method; format: cell-based
T1 sequence (P00533 whole entry): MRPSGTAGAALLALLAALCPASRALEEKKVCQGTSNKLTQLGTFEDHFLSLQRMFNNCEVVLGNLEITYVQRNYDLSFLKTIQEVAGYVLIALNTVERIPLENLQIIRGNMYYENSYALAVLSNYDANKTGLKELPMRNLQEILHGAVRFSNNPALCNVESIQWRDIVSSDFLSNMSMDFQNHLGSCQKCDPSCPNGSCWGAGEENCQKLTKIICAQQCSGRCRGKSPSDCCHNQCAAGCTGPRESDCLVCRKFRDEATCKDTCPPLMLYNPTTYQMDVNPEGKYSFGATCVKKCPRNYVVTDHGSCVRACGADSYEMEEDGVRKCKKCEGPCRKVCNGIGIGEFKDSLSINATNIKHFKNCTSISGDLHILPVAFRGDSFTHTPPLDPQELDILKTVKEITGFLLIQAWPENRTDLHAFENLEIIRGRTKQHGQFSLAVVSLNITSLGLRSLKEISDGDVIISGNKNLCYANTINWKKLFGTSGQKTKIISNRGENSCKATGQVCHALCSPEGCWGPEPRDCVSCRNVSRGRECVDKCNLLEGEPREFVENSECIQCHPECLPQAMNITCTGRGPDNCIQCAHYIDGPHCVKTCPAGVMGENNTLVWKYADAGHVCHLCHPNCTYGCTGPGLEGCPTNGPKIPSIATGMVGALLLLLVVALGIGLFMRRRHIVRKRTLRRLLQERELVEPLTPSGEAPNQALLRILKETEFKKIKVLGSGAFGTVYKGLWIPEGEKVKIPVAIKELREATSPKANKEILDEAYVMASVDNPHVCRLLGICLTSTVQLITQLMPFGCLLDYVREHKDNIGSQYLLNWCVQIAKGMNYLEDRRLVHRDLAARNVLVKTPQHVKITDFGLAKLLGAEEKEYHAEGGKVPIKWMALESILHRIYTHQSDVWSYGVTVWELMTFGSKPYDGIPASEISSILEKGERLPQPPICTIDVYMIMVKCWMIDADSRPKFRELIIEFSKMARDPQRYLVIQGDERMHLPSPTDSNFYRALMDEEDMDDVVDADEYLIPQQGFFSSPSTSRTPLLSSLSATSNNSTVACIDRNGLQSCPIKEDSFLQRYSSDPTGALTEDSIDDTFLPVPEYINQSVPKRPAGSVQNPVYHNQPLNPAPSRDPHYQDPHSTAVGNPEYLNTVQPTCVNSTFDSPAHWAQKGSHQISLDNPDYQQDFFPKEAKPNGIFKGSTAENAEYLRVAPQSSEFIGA

[6] = system: A549; assay: Effect on total GAPDH levels in human A549 cells at 1 to 50 uM after 2 hrs by Western blot method; format: ADME, cell-based; conditions: a549, 2 h
[7] = system: A549; assay: Effect on total EGFR levels in human A549 cells at 1 to 50 uM after 2 hrs by Western blot method; format: ADME, cell-based; conditions: a549, 2 h
[8] = molecular target: T1, Epidermal growth factor receptor; assay: Inhibition of EGFR phosphorylation at Y1068 in human A549 cells at 1 uM preincubated for 2 hrs followed by EGF induction measured after 10 mins by Western blot method; format: cell-based
[9] = molecular target: T1, Epidermal growth factor receptor; assay: Inhibition of EGFR in human NCI-H1975 cells assessed as decrease in Akt phosphorylation at S473 at 50 uM preincubated for 2 hrs followed by EGF induction measured after 10 mins by Western blot method; format: cell-based
[10] = system: A549; assay: Effect on total Akt levels in human A549 cells at 1 to 50 uM after 2 hrs by Western blot method; format: ADME, cell-based; conditions: a549, 2 h
[11] = molecular target: T1, Epidermal growth factor receptor; assay: Inhibition of EGFR phosphorylation at Y1068 in human NCI-H1975 cells at 50 uM preincubated for 2 hrs followed by EGF induction measured after 10 mins by Western blot method; format: cell-based
[12] = molecular target: T1, Epidermal growth factor receptor; assay: Inhibition of EGFR in human NCI-H1975 cells assessed as decrease in Erk1/2 phosphorylation at T202/204 at 50 uM preincubated for 2 hrs followed by EGF induction measured after 10 mins by Western blot method; format: cell-based
[13] = system: A549; assay: Effect on total Erk levels in human A549 cells at 1 to 50 uM after 2 hrs by Western blot method; format: ADME, cell-based; conditions: a549, 2 h
[14] = molecular target: T1, Epidermal growth factor receptor; assay: Inhibition of EGFR phosphorylation at Tyr residue in human A549 cells at 1 uM preincubated for 2 hrs followed by EGF induction measured after 10 mins by Western blot method; format: cell-based
[15] = molecular target: T1, Epidermal growth factor receptor; assay: Inhibition of wild type recombinant EGFR (unknown origin) using poly (Glu,Tyr) 4:1 as substrate after 60 mins by ELISA
[16] = molecular target: T1, Epidermal growth factor receptor; assay: Inhibition of EGFR in human A549 cells assessed as decrease in ERK1/2 phosphorylation at T202/204 at 1 uM preincubated for 2 hrs followed by EGF induction measured after 10 mins by Western blot method; format: cell-based
[17] = molecular target: T1, Epidermal growth factor receptor; assay: Inhibition of EGFR in human A549 cells assessed as decrease in Akt phosphorylation at S473 at 1 uM preincubated for 2 hrs followed by EGF induction measured after 10 mins by Western blot method; format: cell-based

Row | SMILES | IG50 [1] [µM] | IG50 [2] [µM] | IG50 [3] [µM] | IG50 [4] [µM] | further results
1 | OCc1ccc(-c2ccc3ncnc(Nc4ccc(F)c(Cl)c4)c3c2)o1 | 3.91 | >100 | >100 | >100 | –
2 | CS(=O)(=O)CCNCc1ccc(-c2ccc3ncnc(Nc4ccc(OCc5cccc(F)c5)c(Cl)c4)c3c2)o1 [LAPATINIB] | 4.8 | 14.9 | 9.08 | 12.58 | –
3 | OCc1ccc(-c2ccc3ncnc(Nc4ccc(OCc5cccc(F)c5)c(Cl)c4)c3c2)o1 | 3.64 | 7.35 | 3.01 | 5.58 | inhibition [5]: Active; Activity [6]: Non-Toxic; Activity [7]: Non-Toxic; inhibition [8]: Active; inhibition [9]: Active; Activity [10]: Non-Toxic; inhibition [11]: Active; inhibition [12]: Active; Activity [13]: Non-Toxic; inhibition [14]: Active; IC50 [15]: 5.06 nM; inhibition [16]: Active; inhibition [17]: Active
4 | C#Cc1cccc(Nc2ncnc3ccc(-c4ccc(CNCCS(C)(=O)=O)o4)cc23)c1 | 5.78 | 11.35 | 14.92 | 13.38 | –
5 | C/C=C/c1ccc(Nc2ncnc3ccc(-c4ccc(COC(C)=O)o4)cc23)cc1 | 5.53 | 20.61 | 40.85 | 11.18 | –
6 | C/C=C/c1ccc(Nc2ncnc3ccc(-c4ccc(CNCCS(C)(=O)=O)o4)cc23)cc1 | 37.56 | 84.5 | >100 | 56.34 | –
7 | C#Cc1cccc(Nc2ncnc3ccc(-c4ccc(CO)o4)cc23)c1 | 3.21 | >100 | >100 | >100 | IC50 [15]: 15.7 nM
8 | CC(=O)OCc1ccc(-c2ccc3ncnc(Nc4ccc(F)c(Cl)c4)c3c2)o1 | 10.75 | >100 | 54.13 | 43.18 | –
9 | CC(=O)OCc1ccc(-c2ccc3ncnc(Nc4ccc(OCc5cccc(F)c5)c(Cl)c4)c3c2)o1 | 8.33 | 5.49 | 6.78 | 5.18 | –
10 | C/C=C/c1ccc(Nc2ncnc3ccc(-c4ccc(CO)o4)cc23)cc1 | 21.43 | 38.24 | 37.93 | 51.25 | –
11 | CS(=O)(=O)CCNCc1ccc(-c2ccc3ncnc(Nc4ccc(F)c(Cl)c4)c3c2)o1 | 39.34 | >100 | 83.61 | 60.59 | IC50 [15]: 24 nM
12 | C#Cc1cccc(Nc2ncnc3ccc(-c4ccc(COC(C)=O)o4)cc23)c1 | 1.28 | 4.05 | 5.4 | 14.97 | –
